In test [1] the test system is HCT-116. Description: Cell proliferation, Cell-Titre Glo, 72 hours: HCT-116. The format is cell-based. The following applies: Homo sapiens, mean ± std. dev. How it is done: (§1) NHLF, BJAB, SU-DHL-2, and HCT-116 cells were treated with Compound A197 for 4 hours prior to lysate harvest. Total cellular glutathione (GSH) levels were determined using a luminescent endpoint (GSH-Glo, Promega). Cell proliferation was determined using Cell-Titre Glo following 72 hours of compound treatment. All data shown is mean±SD of three biological replicates.

Test [2] concerns Autophagy. Briefly: High content imaging screen: autophagy (LC3 cleavage, autophagic granules). The format is cell-based. The protocol:
(§2) Mechanism of Action Screens A series of broad high content imaging, transcriptomic, metabolomic, and CRISPR KO screens were performed to link Compound A197 activity to a probable method of action. The outcome of these screens included two notable observations.

Test [3] has as its system NHLF. Briefly: Apoptosis, 72 hr: NHLF. The format is cell-based, human.
For test [4], the system named is HCT-116. Description: Apoptosis, 72 hr: HCT-116. The format is cell-based, human.
Test [5] has as its system Kinase. Briefly: In vitro assays: kinase. The format is biochemical. The following applies: 63 kinase family members including Raf, MEK, ERK, AKT, CDK1-4.
Test [6] deals with BJAB. Briefly: Total cellular GSH levels (GSH-Glo): BJAB. The following applies: 4 hrs, mean ± std. dev. The format is cell-based, human. The protocol:
as §1

For test [7], the system named is GPCR. Description: In vitro assays: GPCR. The format is biochemical. The following applies: 69 family members.
Test [8] relates to Oxidative Stress. Description: High content imaging screen: oxidative stress (ROS). The format is cell-based. How it is done:
as §2

Test [9] deals with SU-DHL-10 xenograft. Description: Human xenograft model, diffuse large B-cell lymphoma line SU-DHL-10. The format is in vivo, SCID beige mice. The following applies: once daily oral gavage, p<0.01 for 10 and 30 mpk doses. The protocol:
FIG. 10 is a set of graphs of in vivo treatment results for Athymic Nude mice engrafted with the DLBCL line SU-DHL-10 (left panel) or the CRC line HCT-116 (right panel). After 14 days, groups of mice (n=10 per group) were randomized by tumor volume and treated with Compound B19 (left panel) or Compound A197 (right panel). All animals dosed p.o. q.d. (orally once per day). Tumor burden was measured over 21 days. Compound B19 efficacy was monitored for 21 days following last dose to determine relapse. All data plotted as the mean±SEM, n=10 mice per group.
The positive results of the PK studies led to an evaluation of Compound A197 and Compound B19 in murine xenograft models of human tumors. Compound A197 was tested in a human tumor xenograft model using KRAS mutated colorectal cancer cell line HCT-116. Athymic nude mice (HSD:Athymic Nude-Foxn1 nu, Envigo) were inoculated subcutaneously with 5×10^6 HCT-116 cells in the right rear flank. The animals wethen staged and randomized by tumor size to achieve dose groups of 10 animals each with an average tumor volume of 150 mm^3. Tumor bearing mice were dosed once daily by oral gavage with a vehicle (5% NMP, 15% PEG400, 10% Solutol, and 70% D5W) or with A197 dissolved in vehicle to provide a dose concentration of 10 ml/kg. Compound B19 was tested in a human xenograft model using the human diffuse large B-cell lymphoma line SU-DHL-10 (ATCC). […]

For test [10], the system named is BJAB (malignant human B-cell-line). Briefly: BJAB cell proliferation. The following applies: BJAB (malignant human B-cell-line) cell proliferation, EC50; read-out: BJAB. The format is cell-based.

Where only a bound is given, the exact number is not on record here.

Consider `Cc1nn(-c2nc(-c3ccc(C(F)(F)F)cc3)c(SC(C)C)s2)c(C(=O)O)c1-c1cccc(F)c1` [Compound A197, 4-(3-fluorophenyl)-1-(5-(isopropylthio)-4-(4-(trifluoromethyl)phenyl)thiazol-2-yl)-3-methyl-1H-pyrazole-5-carboxylic acid], for which the IC50 (in general, the concentration needed to halve the response being measured) is 530 ± 210 nM in test [1] and 208 ± 80 nM in test [6] (Homo sapiens, read-out: GSH IC50 (Abs)). For the same compound, the “Outcome: Autophagy” value in test [2] is “No detectable LC3 cleavage; no formation of”. In addition, the “Apoptosis, 72 hr” value in [3] and in [4] was “No” throughout. Also, in test [5], the “Outcome: Kinase” value was “No activity on 63 kinase family members including Raf,”. Moreover, the “GSH % Max reduction” value in [6] is given as 69 ± 11%. Further, the “Outcome: GPCR” value in [7] is “No activity on 69 family members”. For the same compound, in [8], the “Outcome: Oxidative Stress” value is “No production of ROS”.

`COC(=O)c1c(-c2cccc(F)c2)c(C)nn1-c1nc(C2=CCC(C(F)(F)F)CC2)c(SC(C)C)s1` (single isomer, unassigned) [Compound B19, methyl 4-(3-fluorophenyl)-1-(5-(isopropylthio)-4-(4-(trifluoromethyl)cyclohex-1-en-1-yl)thiazol-2-yl)-3-methyl-1H-pyrazole-5-carboxylate]: the “regression in DLBCL tumors” value in test [9] was “dose-dependent and durable regression in DLBCL tumors by day 21”. The EC50 in test [10] was below 1000 nM.
